Assay results published in patent publication EP0168733A2, “Process for the preparation of quinolinone and naphthyridoncarboxylic acids” (BAYER AG, priority 1984, dated 1986).
Converted amounts (≈) assume the structure as drawn.

Tests used:
Test in all cases: Agar dilution test (Isosensitest medium / Denley multipoint inoculator), MIC
Format in all cases: cell-based
E. coli Neum. = conditions: Escherichia coli, read-out: Minimale Hemmkonzentration
Description: (§1) In der nachstehenden Tabelle sind die MHK-Werte einiger der erfindungsgemäßen Verbindungen angegeben.

Proteus vulg. 1017 = conditions: read-out: Minimale Hemmkonzentration
Description: as §1

Klebsiella pneum. 63 = conditions: read-out: Minimale Hemmkonzentration
Description: as §1

Proteus morg. 932 = conditions: read-out: Minimale Hemmkonzentration
Description: as §1

E. coli T 7 = conditions: Escherichia coli, T7, read-out: Minimale Hemmkonzentration
Description: as §1

Klebsiella pneum. 8085 = conditions: read-out: Minimale Hemmkonzentration
Description: as §1

Staphylococcus aur. 133 = conditions: read-out: Minimale Hemmkonzentration
Description: as §1

SMILES	MIC (E. coli Neum.) [µg/mL]	MIC (Proteus vulg. 1017) [µg/mL]	MIC (Klebsiella pneum. 63) [µg/mL]	MIC (Proteus morg. 932) [µg/mL]	MIC (E. coli T 7) [µg/mL]	MIC (Klebsiella pneum. 8085) [µg/mL]	MIC (Staphylococcus aur. 133) [µg/mL]
O=C(O)c1cn(C2CC2)c2cccc([N+](=O)[O-])c2c1=O [Beispiel 6, 1-Cyclopropyl-5-nitro-1,4-dihydro-4-oxo-3-chinolincarbonsäure]	32 (≈ 117 µM)	64 (≈ 233 µM)	128 (≈ 467 µM)	64 (≈ 233 µM)	32 (≈ 117 µM)	128 (≈ 467 µM)	> 128
O=C(O)c1cn(C2CC2)c2cc([N+](=O)[O-])ccc2c1=O [Beispiel 7, 1-Cyclopropyl-7-nitro-1,4-dihydro-4-oxo-3-chinolincarbonsäure]		0.25 (≈ 0.912 µM)	0.5 (≈ 1.82 µM)	0.25 (≈ 0.912 µM)		0.06 (≈ 0.219 µM)	32 (≈ 117 µM)
O=C(O)c1cn(C2CC2)c2cc([N+](=O)[O-])c(Cl)cc2c1=O [Beispiel 1, 6-Chlor-1-cyclopropyl-7-nitro-1,4-dihydro-4-oxo-3-chinolincarbonsäure]	32 (≈ 104 µM)	> 128	> 128	> 128	64 (≈ 207 µM)	32 (≈ 104 µM)	> 128
CN(C)n1cc(C(=O)O)c(=O)c2ccccc21 [Beispiel 4, 1-Dimethylamino-1,4-dihydro-4-oxo-3-chinolincarbonsäure]	32 (≈ 138 µM)	128 (≈ 551 µM)	> 128	128 (≈ 551 µM)	64 (≈ 276 µM)	64 (≈ 276 µM)	> 128
